Here are results for seven compounds from patent publication US20060264494A1, “Heterocyclic amide derivatives which process glycogen phorylase inhibitory activity” (AstraZeneca AB, priority 2003, published 2006).

In brackets after ≈: the same amount, converted by molar mass. Read-outs that look alike come from different tables or passages of the source.

Data set [1] concerns the target T1, Human recombinant liver glycogen phosphorylase a (hrl GPa) (Homo sapiens, UniProt P06737).
T1 sequence (P06737 1-847): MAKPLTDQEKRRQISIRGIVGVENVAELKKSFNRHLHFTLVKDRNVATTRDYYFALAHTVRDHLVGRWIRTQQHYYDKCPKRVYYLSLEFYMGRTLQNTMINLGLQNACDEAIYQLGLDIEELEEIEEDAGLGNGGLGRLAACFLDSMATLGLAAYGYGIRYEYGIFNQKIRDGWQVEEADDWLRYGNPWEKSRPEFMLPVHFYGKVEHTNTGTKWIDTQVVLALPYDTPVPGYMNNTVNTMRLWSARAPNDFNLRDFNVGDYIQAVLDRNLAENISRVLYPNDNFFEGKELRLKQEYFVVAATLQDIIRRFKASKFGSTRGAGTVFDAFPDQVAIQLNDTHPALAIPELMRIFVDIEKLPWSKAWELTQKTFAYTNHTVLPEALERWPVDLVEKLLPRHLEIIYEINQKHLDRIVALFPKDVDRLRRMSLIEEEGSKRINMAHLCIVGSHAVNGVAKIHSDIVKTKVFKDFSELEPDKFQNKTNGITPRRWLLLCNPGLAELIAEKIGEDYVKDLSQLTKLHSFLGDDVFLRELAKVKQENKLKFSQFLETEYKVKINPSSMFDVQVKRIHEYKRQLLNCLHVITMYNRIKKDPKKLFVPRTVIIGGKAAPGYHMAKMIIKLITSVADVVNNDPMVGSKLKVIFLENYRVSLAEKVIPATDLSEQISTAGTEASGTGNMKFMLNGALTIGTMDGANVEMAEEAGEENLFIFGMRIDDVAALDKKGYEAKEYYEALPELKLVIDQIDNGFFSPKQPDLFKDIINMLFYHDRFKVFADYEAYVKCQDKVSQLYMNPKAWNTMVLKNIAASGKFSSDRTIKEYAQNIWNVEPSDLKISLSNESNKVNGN
In words: glycogen phosphorylase inhibition, multienzyme coupled assay. It counts as biochemical. How it is done: The activity of the compounds is determined by measuring the inhibitory effect of the compounds on glycogen degradation, the production of glucose-1-phosphate from glycogen is monitored by the multienzyme coupled assay, as described in EP 0 846 464 A2, general method of Pesce et al (Pesce, M A, Bodourian, S H, Harris, R C, and Nicholson, J F (1977) Clinical Chemistry 23, […]). The reactions were in 384 well microplate format in a volume of 50 μl. The change in fluorescence due to the conversion of the co-factor NAD to NADH is measured at 340 nm excitation, 465 nm emission in a Tecan Ultra Multifunctional Microplate Reader. The reaction is in 50 mM HEPES, 3.5 mM KH2PO4, 2.5 mM MgCl2, 2.5 mM ethylene glycol-bis(b-aminoethyl ether) N,N,N′,N′-tetraacetic acid, 100 mM KCl, 8 mM D-(+)-glucose pH7.2, containing 0.5 mM dithiothreitol, the assay buffer solution. Human recombinant liver glycogen phosphorylase a (hrl GPa) 20 nM is pre-incubated in assay buffer solution with 6.25 mM NAD, 1.25 mg type III glycogen at 1.25 mg ml^−1 the reagent buffer, for 30 minutes. The coupling enzymes, phosphoglucomutase and glucose-6-phosphate dehydrogenase (Sigma) are prepared in reagent buffer, final concentration 0.25 Units per well. 20 μl of the hrl GPa solution is added to 10 μl compound solution and the reaction started with the addition of 20 μl coupling enzyme solution. Compounds to be tested are prepared in 10 μl 5% DMSO in assay buffer solution, with final concentration of 1% DMSO in the assay. The non-inhibited activity of GPa is measured in the presence of 10 μl 5% DMSO in assay buffer solution and maximum inhibition measured in the presence of 5 mgs ml^−1 N-ethylmaleimide. After 6 hours at 30° C. Relative Fluoresence Units (RFUs) are measured at 340 nm excitation, 465 nm emission.
The assay is performed at a test concentration of inhibitor of 10 μM or 100 μM.

A further data set in a line: thermodynamic solubility. In kind it is physicochemical. Particulars: 0.1 M phosphate buffer, pH 7.4, aqueous buffer, thermodynamic from solid, 0.1 M phosphate at pH7.4 for 24 hours.
For data set [2] the following is noted: db/db and ob/ob mice; dose related; cited from earlier work.
The next data set relates to hepatocytes. Particulars: cited from earlier work.
For data set [3] the following is noted: conscious dogs, following a glucagon challenge; cited from earlier work.
Where [4] appears, read: hrl GPa 20 nM, 6 hours at 30° C., read-out: Activity (μM) IC50.

Broadly, the IC50 is the concentration that inhibits the measured activity by half. One may read the solubility as the dissolved amount per volume that the medium holds. Read a high solubility as much dissolved substance.

As to `CN(C(=O)[C@@H](N)CO)[C@@H]1c2ccccc2C[C@H]1NC(=O)c1cc2sc(Cl)c(Cl)c2[nH]1.Cl` [Example 27, 2,3-Dichloro-N-{(1R,2R)-1-[methyl(L-seryl)amino]-2,3-dihydro-1H-inden-2-y}-4H-thieno[3,2-b]pyrrole-5-carboxamide hydrochloride], the IC50 in data set [1] (setting [4]) is 0.11 µM. In addition, the solubility at 24 h in “thermodynamic solubility” was determined as 50 µM.

As for `O=C(N[C@@H](Cc1ccc(F)cc1)C(=O)N1CCC(O)CC1)c1cc2cc(Cl)ccc2[nH]1` [CP320626], the plasma glucose concentration entry in data set [2] was “reduced”. For the same compound, in the data set with hepatocytes, the glucagon stimulated glycogenolysis entry is given as “reduce” and the “glucose output in hepatocytes” value is “reduce”.

`COCC(=O)N(C)[C@@H]1c2ccccc2C[C@H]1NC(=O)c1cc2cc(Cl)sc2[nH]1` [Example 1, 2-Chloro-N-{(1R,2R)-1-[(methoxyacetyl)(methyl)amino]-2,3-dihydro-1H-inden-2-yl}-6H-thieno[2,3-b]pyrrole-5-carboxamide]: the half-inhibitory concentration (IC50) in data set [1] (text b160, read-out: IC50) worked out at 0.265 µM.

For `CN(C)C(=O)[C@H](O)[C@H](Cc1ccccc1)NC(=O)c1cc2cc(Cl)ccc2[nH]1` [CP91149], the plasma glucose concentration entry in data set [2] is “reduced”. Further, in the data set with hepatocytes, the glucagon stimulated glycogenolysis result is reported as “reduce” and the “glucose output in hepatocytes” value is on record as “reduce”.

In the case of `CCN1C(C)=C(C(=O)OC(C)C)C(c2ccccc2Cl)C2=C1COC2=O` (stereo not drawn) [Bay R 3401], in data set [3], the arterial plasma glucose entry is given as “reduced significantly” and the hepatic glucose output entry is “reduced significantly”.

Regarding `CC(=O)N(C)[C@@H]1c2ccccc2C[C@H]1NC(=O)c1cc2sc(Cl)c(Cl)c2[nH]1` [Reference Eg 1], the half-maximal inhibitory concentration (IC50) in data set [1] (setting [4]) was ~0.4 µM. This compound also registered a solubility at 24 h in the data set “thermodynamic solubility” of 1.4 µM (≈ 0.591 µg/mL).

For “2-Chloro-N-{(1R,2R)-1-[[(2S)-2,3-dihydroxypropanoyl](methyl)amino]-2,3-dihydro-1H-inden-2-yl}-6H-thieno[2,3-b]pyrrole-5-carboxamide [Example 8]”, the IC50 was determined as 0.07 µM in data set [1] (setting [4]) and 0.176 µM in data set [1] (text b160, unit printed as nm, read-out: IC50).
